Data on two compounds can be found in patent publication US20120177710A1, “TOPICALLY APPLICABLE COMPOSITION FOR USE AS A SKIN BLEACHING AGENT” (DSM IP ASSETS B.V., priority 2005, published 2012).

The experiment has as its system MelanoDerm Mel-300B tissues of the dark skin type. Kind of experiment: Reduction in melanin content after treatment of MelanoDerm tissues of the dark skin type. The experiment is classed as cell-based. As to conditions: absorption at 450 nm, control = 100; for Melanin content in % 8 days of treatment, measured after 16 days: 10 mM per tissue topically, then a further eight days in normal medium without test substance; for Melanin content in % after 16 days of treatment: test substance applied topically as aqueous solution, 10 mM per tissue, renewed every 48 hours. The procedure:
Determination of the Reduction in Melanin Content after the Treatment of Melanoderm Tissues of the Dark Skin Type with Test Substances
Test substances: compound 1 and cystamine as standard • Cultivation of the Tissues and Application of the Test Substances
The tissues, treated according to the manufacturer's instructions, were transferred to 6-well plates containing 3 ml of medium per well. The tissues were placed on membrane inserts (Transwell-Clear from Corning). 2 ml of medium were pipetted into the lower compartment and 1 ml of medium into the upper compartment. The test substances were applied topically as an aqueous solution at a rate of 10 mM per tissue. The medium and the test substance were renewed every 48 hours by rinsing the surface of the tissues with 500 μl of warm PBS and applying fresh test substance. After 8 days the test substance was removed from two tissues per treatment type and cultivation was continued for a further eight days with normal medium not containing test substance. The other two tissues per treatment type were incubated further with test substance. The experiment lasted a total of 16 days. • Extraction of the Melanin
The membranes with the pigmented epidermis were cut out of the holders with a scalpel and transferred to screw-capped Eppendorf tubes. 200 μl of 1% SDS in 10 mM Tris, 0.05 mM EDTA pH 6.8 and 20 μl of Proteinase K were pipetted into each tube. The Eppendorf tubes were incubated overnight in a Thermomixer at 45° C. The following morning a further 20 μl of Proteinase K were pipetted into each tube and incubation was continued for 6 hours. The lysate was rendered basic by the addition of 25 μl of 500 mM NaHCO3 and incubated in the Thermomixer for 30 min at 80° C. Fats and proteins were removed from the lysate by treatment with 200 μl of methanol/chloroform (2:1). 3×100 μl of supernatant were pipetted into a 96-well plate and the absorption was measured at 450 nm. • Results

Take `N=C(N)NCCSSCCNC(=N)N` [Compound 1]: the “Melanin content in % 8 days of treatment, measured after 16 days” value is 23% and the “Melanin content in % after 16 days of treatment” value is given as 12%.
Turning to `NCCSSCCN` [Cystamine (standard), bis(2-aminoethyl)disulfide], the “Melanin content in % 8 days of treatment, measured after 16 days” value came out at 52% and the “Melanin content in % after 16 days of treatment” value is on record as 30%.
